Experimental data: patent US20230405003A1, “APPLICATION OF THYMIDINE DERIVATIVE IN PREPARATION OF DRUGS” (ONQUALITY PHARMACEUTICALS CHINA LTD., priority 2020, published 2023)
Read-outs that look alike come from different tables or passages of the source.

Legend:
[1] = test system: hand-foot syndrome caused by capecitabine in Balb/c mice; assay: Mouse model of hand-foot syndrome caused by capecitabine, gel application or oral administration; type: in vivo; details: Mus musculus, 192 h, capecitabine 1000 mg/kg once daily, oral 200 mpk twice per day, 8 days
Protocol: A mouse animal model was established. 6-week aged male Balb/c mice were administered with capecitabine by daily gavage. After a few days, mice's paws developed hand-foot syndrome symptoms (similar to the results of the rat model, such as, in FIG. 13). Similar to the human body, mice developed hand-foot syndrome in the forepaws and hind paws after oral administration of capecitabine. The causes of the two are the same, and the disorder is also very similar. Therefore, mice are very good animal models for simulating the hand-foot syndrome caused by capecitabine.
After Balb/c mice were fed and adapted for one week (about 20 g), the mice were divided into groups, with 10 mice in each group. Then, the mice were subject to gavage administration. Capecitabine was dissolved in normal saline with pH=8, and the gavage dose was not greater than 0.3 mL at each time. After gavage, the blank gel was applied to the forepaws and the hind paws (about 4*0.5 cm*0.5 cm) in group of blank gel, and gels containing different drugs were applied to the forepaws and the hind paws (about 4*0.5 cm*0.5 cm) in group of administration. After application, the mice were fixed in Elizabethan collar for 4 hours. After 4 hours, the mice were released, wiped with clean water to remove any residual drug at the application site, and allowed back to the cage. The gavage and application tests are repeated daily until the group of blank has developed obvious hand-foot syndrome. […] Additionally, the thymidine derivative and the combination of thymidine derivative and uridine derivative were orally administered for observing the relief of the hand-foot syndrome. In examples 41-48, thymidine derivative and/or uridine derivative were/was applied, and in examples 49-52, thymidine derivative and/or uridine derivative were/was administered orally.
Table 5 lists the combinations of animal experiments of capecitabine and thymidine derivative (or a combination of thymidine derivative and uridine derivative) and the corresponding experimental results (wherein the data in the column of control rate=the occurrence rate of hand-foot syndrome in group of blank—the occurrence rate of hand-foot syndrome in group of administration).
The effect of thymidine derivative or a combination of thymidine derivative and uridine derivative on a mouse model with chemotherapeutic drug (capecitabine)-induced hand-foot syndrome was tested according to the method in Examples 41-52. Wherein, the drugs were administered transdermally for Examples 119-120 and orally for Examples 121-123.
The test thymidine derivative or the combination of thymidine derivative and uridine derivative, as well as the final concentration of the test compounds were shown in Table 9. Table 9 lists the combinations of animal experiments of capecitabine and the thymidine derivative gel (or a compounded gel of thymidine derivative and uridine derivative) and the corresponding experimental results (wherein the data in the column of control rate=the occurrence rate of hand-foot syndrome in Group of blank—the occurrence rate of hand-foot syndrome in Group of administration).

HaCaT cells = assay: Relief of 5-FU proliferative toxicity to HaCaT cells (CCK-8 cell survival); type: cell-based; details: for Cell Survival Rate (increased percentage of cell survival compared with the Group of 5-FU): 5-Fu 20 μM, HaCaT cells
Procedure, shortened: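 HaCaT keratinocytes (5000–10000/well) cultured 24 h, then exposed 48 h to 5-FU alone or with thymidine derivative, or thymidine plus uridine derivative mix, versus solvent-matched blanks. Survival by CCK-8; value is % increase in survival over 5-FU alone, t-test.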

[2] = test system: 5-FU-induced diarrhea in Balb/c mice; assay: 5-FU-induced diarrhea mouse model (175 mg/kg single i.p.); type: in vivo; details: 5-FU 175 mg/kg single i.p.; for Survival Rate / Average Diarrhea Grade: 6 days; for Average Diarrhea Grade: score 0-4
Protocol: 7-8-week-old male Balb/c mice were used to establish a 5-FU induced diarrhea model to test the effect of the thymidine derivative or the combination of thymidine derivative and uridine derivative on the relief of diarrhea.
Modeling dose of 5-Fu: 175 mg/kg; single administration, intraperitoneal injection (ip.);
Administration mode of the compound to test (thymidine derivative or combination of thymidine derivative and uridine derivative): single administration, by gavage, advance administration of the compound to test at various time points prior to intraperitoneal injection of 5-FU. The compound to test was administered 1 h prior to the administration of 5-FU, a certain amount of 5-FU was injected intraperitoneally 1 h later, and the compound to test was administered once again 7 h after the injection of 5-FU.
The mice were fed and adapted for one week, and then divided into groups, with 10 mice in each group for administration test.
The mice in the Group of blank was injected with 0.9% NaCl, and evaluated the effect by observing the change of diarrhea grade, food uptake, and weight change. The severity of diarrhea was scored in accordance with the following standards: 0: normal feces, 1: soft feces, 2: slightly wet, soft feces, 3: wet, unformed feces, with moderate coloration in perianal region, 4: watery feces with heavy coloration of hair in perianal region. The severity of diarrhea was evaluated by occurrence scores of various grades of diarrhea (Scores 0 to 4) and average score of diarrhea. […] The models were stable, and satisfied the experimental requirements.
5-FU was dissolved in a 0.9% NaCl solution, the mice in the model group and the treatment group were all i.p. injected at a dose of 175 mg/kg/d, […]. While modeling of injection administration of 5-FU, the thymidine derivative or the combination of thymidine derivative and uridine derivative was administered by gavage, and the compounds to test were dissolved in a PBS solution containing 5% DMSO+1% HPMC. Body weight was weighed daily to count the weight change (Δ % BW, the weight changes recorded in the table were the values on Day 6), and the food was weighed daily to calculate the food uptake. The mice were daily observed for their clinical status, e.g., activity, diarrhea, hair, fighting, etc. After 6 days, the experiments were completed and statistically analyzed for the results.

[3] = selected compound final concentration 0.8 μM
[4] = selected compound final concentration 1.6 μM
[5] = selected compound final concentration 3.13 μM
[6] = selected compound final concentration 6.25 μM
[7] = selected compound final concentration 12.5 μM
[8] = selected compound final concentration 25 μM
[9] = selected compound final concentration 50 μM

CCCC(=O)OC[C@H]1O[C@@H](n2cc(C)c(=O)[nH]c2=O)C[C@@H]1OC(=O)CCC [T6, ((2R,3S,5R)-3-(butyryloxy)-5-(5-methyl-2,4-dioxo-3,4-dihydropyrimidin-1(2H)-yl)tetrahydrofuran-2-yl)methyl Butyrate]
inhibition in vivo at 200 mg/kg ([1]; read-out: Control Rate Forepaws): 65% | inhibition in vivo at 200 mg/kg ([1]; read-out: Control Rate Hindpaws): 77.5% | activation at 1 µM (HaCaT cells; Homo sapiens, HaCaT, increase vs Group of 5-FU, 5-FU 20 μM, compound 1 μM, 48 h, read-out: Cell Survival Rate): 27 to 34% | activation at 5 µM (HaCaT cells; Homo sapiens, HaCaT, increase vs Group of 5-FU, 5-FU 20 μM, compound 5 μM, 48 h, read-out: Cell Survival Rate): 40 to 48% | activation at 10 µM (HaCaT cells; Homo sapiens, HaCaT, increase vs Group of 5-FU, 5-FU 20 μM, compound 10 μM, 48 h, read-out: Cell Survival Rate): 55 to 65% | activation at 50 µM (HaCaT cells; Homo sapiens, HaCaT, increase vs Group of 5-FU, 5-FU 20 μM, compound 50 μM, 48 h, read-out: Cell Survival Rate): 65 to 75% | activation at 100 µM (HaCaT cells; Homo sapiens, HaCaT, increase vs Group of 5-FU, 5-FU 20 μM, compound 100 μM, 48 h, read-out: Cell Survival Rate): 68 to 75% | activation at 200 µM (HaCaT cells; Homo sapiens, HaCaT, increase vs Group of 5-FU, 5-FU 20 μM, compound 200 μM, 48 h, read-out: Cell Survival Rate): 85 to 95%

Cc1cn([C@H]2C[C@H](O)[C@@H](COC(=O)C(C)c3cccc(C(=O)c4ccccc4)c3)O2)c(=O)[nH]c1=O (stereo partly shown) [T33]
Δ % BW (on Day 6) ([2]; 50 mpk gavage): 4.18% ± 0.56% | Survival Rate ([2]; 50 mpk gavage): 100% | Average Diarrhea Grade ([2]; 50 mpk gavage): 1 | Cell Survival Rate (increased percentage of cell survival compared with the Group of 5-FU) (HaCaT cells; [3]): 36%-42% | Cell Survival Rate (increased percentage of cell survival compared with the Group of 5-FU) (HaCaT cells; [4]): 37%-44% | Cell Survival Rate (increased percentage of cell survival compared with the Group of 5-FU) (HaCaT cells; [5]): 39%-49% | Cell Survival Rate (increased percentage of cell survival compared with the Group of 5-FU) (HaCaT cells; [6]): 36%-42% | Cell Survival Rate (increased percentage of cell survival compared with the Group of 5-FU) (HaCaT cells; [7]): 55%-63% | Cell Survival Rate (increased percentage of cell survival compared with the Group of 5-FU) (HaCaT cells; [8]): 64%-71% | Cell Survival Rate (increased percentage of cell survival compared with the Group of 5-FU) (HaCaT cells; [9]): 66%-73% | Cell Survival Rate (increased percentage of cell survival compared with the Group of 5-FU) (HaCaT cells; selected compound final concentration 100 μM): 55%-63%

CCC(CC)COC(=O)[C@H](C)N[P@](=O)(OC[C@H]1O[C@@H](n2cc(C)c(=O)[nH]c2=O)C[C@@H]1O)Oc1ccccc1 [T48]
Δ % BW (on Day 6) ([2]; 15 mpk gavage): −1.97% ± 0.67% | Survival Rate ([2]; 15 mpk gavage): 100% | Average Diarrhea Grade ([2]; 15 mpk gavage): 1.3 | Cell Survival Rate (increased percentage of cell survival compared with the Group of 5-FU) (HaCaT cells; [3]): 26%-34% | Cell Survival Rate (increased percentage of cell survival compared with the Group of 5-FU) (HaCaT cells; [4]): 38%-46% | Cell Survival Rate (increased percentage of cell survival compared with the Group of 5-FU) (HaCaT cells; [5]): 41%-48% | Cell Survival Rate (increased percentage of cell survival compared with the Group of 5-FU) (HaCaT cells; [6]): 66%-73% | Cell Survival Rate (increased percentage of cell survival compared with the Group of 5-FU) (HaCaT cells; [7]): 68%-76% | Cell Survival Rate (increased percentage of cell survival compared with the Group of 5-FU) (HaCaT cells; [8]): 77%-85% | Cell Survival Rate (increased percentage of cell survival compared with the Group of 5-FU) (HaCaT cells; [9]): 69%-76%

CCC(CC)COC(=O)[C@H](C)N[P@@](=O)(Oc1ccccc1)O[C@H]1C[C@H](n2cc(C)c(=O)[nH]c2=O)O[C@@H]1CO [T49]
Δ % BW (on Day 6) ([2]; 15 mpk gavage): −1.97% ± 0.67% | Survival Rate ([2]; 15 mpk gavage): 80% | Average Diarrhea Grade ([2]; 15 mpk gavage): 0.75 | Cell Survival Rate (increased percentage of cell survival compared with the Group of 5-FU) (HaCaT cells; [3]): 35%-42% | Cell Survival Rate (increased percentage of cell survival compared with the Group of 5-FU) (HaCaT cells; [4]): 56%-63% | Cell Survival Rate (increased percentage of cell survival compared with the Group of 5-FU) (HaCaT cells; [5]): 72%-79% | Cell Survival Rate (increased percentage of cell survival compared with the Group of 5-FU) (HaCaT cells; [6]): 68%-74% | Cell Survival Rate (increased percentage of cell survival compared with the Group of 5-FU) (HaCaT cells; [7]): 36%-44%
